Results taken from US12061143B2, “Methods for rapid determinations of antibiotic susceptibility phenotypes” (priority 2018, dated 2024).

Tests used:
Type in all cases: cell-based
[1] = test system: A. nosocomialis strain M2; assay: FAST flow cytometry AST with PB-sQF, bacteria recovered from 10% human blood; conditions: M2 spiked in 10% human blood, assayed within 8 hrs of simulated blood draw
Method: Varied counts of bacteria were mixed with human blood and diluted 1:9 (v/v) with bacterial growth medium to desired bacterial concentrations (<10 CFU/mL final solution) and plated to independently confirm CFU/mL blood. Saponin was immediately added and the samples shaken for 15 minutes to achieve selective blood cell lysis. After hemolysis, bacteria were spun down and washed with PBS. […] This allowed comparison of fold distances among all samples as each is individually paired to its own control, as is each replicate.
To simulate a blood specimen from a patient with bacteremia, the isolates were grown, diluted to the desired CFU/mL in blood (ZenBio, Research Triangle Park, NC) and saponin was added to achieve the final diluted sample. Initial bacterial cultures were prepared using Luria-Bertani (LB) broth for (E. coli) or cation-adjusted Mueller-Hinton broth (CAMHB). The fresh bacterial cultures started from ˜0.05 optical density (OD) by inoculating a 6-mL fresh growth medium with overnight culture were grown in an incubator shaker (MaxQ 4000, Thermal Fisher Scientific, Waltham, MA) at 37° C. and 225 rpm. […] Bacterial densities were determined by plating onto LB plates. […]
Cytometric data were collected by BD LSRFortessa flow cytometer (Becton Dickinson, Franklin Lake, NY) equipped with a 100 mW, 488 nm laser for the scatter signal. […] Data were recorded with FACSDiVa provided by BD. […]

[2] = test system: Lab-strain E. coli (ATCC); assay: FAST with low bacterial counts (500 counts by flow cytometry); conditions: each antibiotic at MIC, ¼ MIC and 1/16 MIC, bars beyond the 99% confidence line
Source text: FIG. 14. Bactericidal Antibiotic-induced changes for low counts of E. coli. Lab-strain E. coli (ATCC) ASTs performed with 500 counts by flow cytometry with gentamicin (Gen), penicillin G (PenG), and tetracycline (Tet) each at MIC, ¼ MIC and 1/16 MIC. This strain is seen to be sensitive to all three antibiotics, as the bars extend beyond the 99% confidence line.
While both morphology and growth inhibition occur upon exposure to antibiotics near the minimum inhibitory concentration, standard ASTs are based on growth inhibition alone. The presence of bacteria is clearly indicated by the presence of a particular scattering peak in the multidimensional histogram. This is much more sensitive and less affected by background than is shifts in a peak resulting from morphological changes upon antibiotic exposure. […] For even a few hundred counts, the presence of a bacterial population can be readily assessed with flow cytometry, but error bars and statistical distances must be properly determined relative to no-antibiotic controls. When too few counts for triplicate runs exist, control and each antibiotic exposure histograms are treated as probability distributions that are representative of the true mother distribution for each condition. Each histogram is binned (either adaptively with probability binning or using regular bins) and the distribution of data within each bin is determined. […]

E. coli Mu14S = assay: MIC by broth microdilution AST
Method: (§1) Varied counts of bacteria were mixed with human blood and diluted 1:9 (v/v) with bacterial growth medium to desired bacterial concentrations (<10 CFU/mL final solution) and plated to independently confirm CFU/mL blood. Saponin was immediately added and the samples shaken for 15 minutes to achieve selective blood cell lysis. After hemolysis, bacteria were spun down and washed with PBS. The pellets were resuspended in bacterial growth medium and incubated at 37° C. for 2 hours, followed by another 3-hour incubation with antibiotics at various fractions of the minimum inhibition concentration (MIC, as independently determined by microdilution from the pure starting culture, Table 1) for sensitive strains or at the CLSI MIC resistant breakpoints^(12) for the highly resistant strains. Changes in scattered light signals largely resulting from bacterial growth inhibition were monitored by flow cytometry, and the difference in the 2-D scatter histograms with and without antibiotic treatment was quantified with PB-sQF statistics.^(1) Using PB-sQF, distance was calculated for each antibiotic concentration relative to its own no-antibiotic control and expressed as “fold distance” relative to the 99% confidence limit distance between the no-antibiotic control and the sensitive breakpoint. This allowed comparison of fold distances among all samples as each is individually paired to its own control, as is each replicate.
(§2) All clinical isolates (E. coli strains Mu14S and Mu890, K. pneumoniae strains Mu670 and Mu55, A. nosocomialis strains M2) were obtained from the Georgia Emerging Infection Program (GEIP). The MIC of each isolate was determined by a clinical microbiology laboratory using post blood culture automated AST and confirmed using broth microdilution in our laboratory. The MICs of each strain were measured to be as follows. For A. nosocomialis strain M2, 1 μg/mL tetracycline, 2 μg/mL gentamicin, and >1024 μg/mL ampicillin. For E. coli strain Mu890, 1 μg/mL tetracycline, 8 μg/mL gentamicin, and >1024 μg/mL ampicillin. For E. coli strain Mu14S, >64 μg/mL tetracycline, 8 μg/mL gentamicin, and >1024 μg/mL ampicillin. For K. pneumoniae strain Mu55, >64 μg/mL tetracycline, 1 μg/mL gentamicin, and >1024 μg/mL ampicillin. For K. pneumoniae strain Mu670, 2 μg/mL tetracycline, 4 μg/mL gentamicin, and >1024 μg/mL ampicillin.

K. pneumoniae Mu670 = assay: MIC by broth microdilution AST
Method: as §1, §2

K. pneumoniae Mu55 = assay: MIC by broth microdilution AST
Method: as §1, §2

E. coli Mu890 = assay: MIC by broth microdilution AST; conditions: E. coli Mu890
Method: as §1, §2

A. nosocomialis M2 = assay: MIC by broth microdilution AST
Method: as §1, §2

[3] = test system: 10% human blood samples without bacteria inoculation; assay: Antibiotic-treated 10% human blood only control (no bacteria), flow cytometry; conditions: 10% human blood without bacteria, around the resistance breakpoints of Enterobacteriaceae
Method: FIGS. 6A-6D. Antibiotic-treated 10% human blood only results. Cytometric data with (FIG. 6A) Ampicillin (FIG. 6B) Tetracycline (FIG. 6C) Gentamicin. The greyscale plots are the no-antibiotic controls and the black contour plots are the antibiotic-treated data with the antibiotic concentration indicated at each plot. (FIG. 6D) PB-sQF results for FIGS. 6A-6C). […] For each antibiotic, the resistant breakpoints of Enterobacteriaceae are 16 μg/mL for tetracycline and gentamicin and 32 μg/mL for ampicillin.
This confirms that the gentamicin sensitivity of Mu14S observed after blood culture^(1) can also be observed on much shorter timescales with FAST. Overnight plating confirms that initial Mu14S counts were 3, 2, 5 and CFU/mL for tetracycline, gentamicin and ampicillin data after 10-fold dilution of the blood/bacteria mixture, corresponding to FAST being performed on whole blood samples containing ˜30, ˜20 and ˜50 CFU/mL. […] Thus, diluting bacterimic blood specimens 1:9 (v:v) directly into saponin-containing growth medium provides a path to ASTs within 8 hours from initial blood draw, with excellent results matching independent (36-44 hrs) MIC determinations from pure, overnight cultures (˜10^8 CFU/mL) that could only be initiated after (˜24 hr) positive blood culture.

[4] = class according to 2016 CLSI handbook
[5] = microdilution from pure culture

Gentamicin
PB-sQF FAST susceptibility [1]: susceptible | PB-sQF AST susceptibility at low counts [2]: sensitive | MIC (S/I/R) (E. coli Mu14S; [4]): (I) | MIC (E. coli Mu14S; [5]): 8 µg/mL | MIC (S/I/R) (K. pneumoniae Mu670; [4]): (S) | MIC (K. pneumoniae Mu670; [5]): 4 µg/mL | MIC (S/I/R) (K. pneumoniae Mu55; [4]): (S) | MIC (K. pneumoniae Mu55; [5]): 1 µg/mL | MIC (S/I/R) (E. coli Mu890; [4]): (I) | MIC (E. coli Mu890; [5]): 8 µg/mL | MIC (S/I/R) (A. nosocomialis M2; [4]): (S) | MIC (A. nosocomialis M2; [5]): 2 µg/mL | scattered light histograms change [3]: do not significantly change
